In patent US10258610B2, “Pharmaceutical compositions comprising rifaximin, processes for their preparation and their use in the treatment of vaginal infections” (ALFASIGMA S.P.A., priority 2011, dated 2019):

Legend:
[1] = system: bacterial vaginosis; test: Phase II clinical trial, recovery by Amsel criteria and Nugent score; format: in vivo, human; settings: for Recovery of patients after relapse of bacterial vaginosis / Recovery of patients suffering from a first episode of bacterial vaginosis: visit V4 as titled, Amsel and Nugent
Excerpt: The example describes the clinical trial Phase II carried out on 114 patients affected by bacterial vaginosis, non-pregnant, having an age between 18 and 50 years. The diagnosis of bacterial vaginosis was based on Amsel criteria, wherein at least three criteria out of four must be positive, and on the Nugent score, wherein a score higher than four indicates the presence of pathogenic vaginal bacteria. The objectives of the trial were the evaluation of recovery from bacterial vaginosis both according to Amsel criteria (Amsel index <3) and according to Nugent score (Nugent index <4) 7-10 days after the end of the therapy. The secondary objectives of the trial were the recovery, separately evaluated according to Amsel criteria and to Nugent score, at the first control visit (V3), the continued recovery at the second control visit (V4) and the evaluation of the composition of vaginal microbiota by means of PCR and PCR-DGGE. In particular, the patients affected by bacterial vaginosis and not affected by contemporaneous viral, protozoan and fungal vaginal infections were assigned to one of the following treatment groups using a centralized randomization procedure and a double-blind experimental design: Group A: 21 patients receiving a vaginal tablet of rifaximin containing 100 mg rifaximin, prepared according to Example 2, once a day for five days, in the evening; Group B: 23 patients receiving a vaginal tablet of rifaximin containing 25 mg rifaximin, prepared according to Example 1, once a day for five days, in the evening; Group C: 19 patients receiving a vaginal tablet of rifaximin containing 100 mg rifaximin, prepared according to Example 2, once a day for two days, in the evening, plus a vaginal tablet of placebo, once a day for the remaining three days, in the evening; Group D: 22 patients receiving a placebo tablet prepared according to Example 1, wherein the rifaximin amount was replaced by lactose monohydrate, once a day for five days, in the evening. The study included a screening visit (V1) followed by a randomization visit after seven days (V2), by a first control visit 7-10 days after the end of the therapy (V3) and by a second and last control visit 28-35 days after the end of the therapy (V4). The evaluation of the attainment of the primary objective was carried out during visit V3, and the evaluation of the attainment of the secondary objectives was evaluated during the second and last visit (V4). Table 18 reports the percent recovery from the disease at the visit V3, according to both evaluation criteria, namely the clinical one (Amsel) and the microbiological (Nugent). The recovery was evaluated according to Nugent score by using a Gram stained slide and by evaluating the proportion between Lactobacilli and other bacteria such as Gram-variable or Gram-negative coccobacilli, Gram-variable curved bacilli.

[2] = system: Gardnerella vaginalis; test: Vaginal microbiota by quantitative real-time PCR; format: in vivo; settings: for Target DNA/genomic vaginal DNA, Gardnerella vaginalis / Target DNA/genomic or vaginal DNA, Gardnerella vaginalis: average; for Target DNA/genomic or vaginal DNA, Gardnerella vaginalis: visit V4, patients maintaining recovery
Experimental: (§1) During the clinical trial, described in Example 12, samples of vaginal cleansing were collected and the composition of vaginal microbiota was determined by means of the quantitative real-time PCR.
(§2) With the real-time PCR the DNA samples are amplified with gender- and/or species-specific primers whose target is the 16S rRNA bacterial gene or the 16S-23 S rRNA region.
(§3) In particular, specific probes were used for the Lactobacillus gender, for Gardnerella vaginalis, for Atopobium, for Prevotella and for Veillonella, since they represent the main bacterial groups suffering from modifications in case of bacterial vaginosis.
(§4) Table 28 reports the values of real-time PCR relating to bacterial genders and species quantified in vaginal cleansings of women belonging to the different treatment groups, expressed as total target DNA ng/genomic DNA μg, for microbial species tested for each group at the visit V3 if compared to the visit V1.
(§5) The composition of vaginal microbiota was determined by means of the quantitative real-time PCR technique of patients maintaining their recovery at the visit V4, 30-40 days after the end of the therapy, and the DNA samples amplified with gender- and/or species-specific primers were evaluated by means of the real-time PCR technique.
(§6) Table 29 reports the values of real-time PCR relating to target bacterial genders and species quantified in vaginal rinses of women belonging to the different treatment groups, expressed as total target DNA ng/genomic DNA μg, for microbial species tested for each group at the visit V4 when compared to the values observed at the visit V1 of all treated patients.

[3] = system: Lactobacillus; test: Vaginal microbiota by quantitative real-time PCR; format: in vivo; settings: for Target DNA/genomic vaginal DNA, Lactobacillus / Target DNA/genomic or vaginal DNA, Lactobacillus: average; for Target DNA/genomic or vaginal DNA, Lactobacillus: visit V4, patients maintaining recovery; for increase of Lactobacilli concentration: visit V4
Experimental: as §1, §2, §3, §4, §5, §6

[4] = system: Prevotella; test: Vaginal microbiota by quantitative real-time PCR; format: in vivo; settings: for Target DNA/genomic vaginal DNA, Prevotella / Target DNA/genomic or vaginal DNA, Prevotella: average; for Target DNA/genomic or vaginal DNA, Prevotella: visit V4, patients maintaining recovery
Experimental: as §1, §2, §3, §4, §5, §6

[5] = system: Veillonella; test: Vaginal microbiota by quantitative real-time PCR; format: in vivo; settings: average; for Target DNA/genomic or vaginal DNA, Veillonella: visit V4, patients maintaining recovery
Experimental: as §1, §2, §3, §4, §5, §6

[6] = visit V3, Group A: 1 tablet 100 mg × 5 days
[7] = visit V3, Group A: 1 tablet 100 mg × 5 days, listed as rifaximin
[8] = visit V3, Group B: 1 tablet 25 mg × 5 days
[9] = visit V3, Group B: 1 tablet 25 mg × 5 days, listed as rifaximin
[10] = visit V3, Group C: 1 tablet 100 mg × 2 days
[11] = visit V3, Group C: 1 tablet 100 mg × 2 days, listed as rifaximin
[12] = Group A: 1 tablet 100 mg × 5 days
[13] = Group B: 1 tablet 25 mg × 5 days
[14] = Group C: 1 tablet 100 mg × 2 days
[15] = all groups treated with rifaximin, compared to placebo
[16] = visit V1 (before therapy), Group A: 1 tablet 100 mg × 5 days
[17] = visit V1 (before therapy), Group B: 1 tablet 25 mg × 5 days
[18] = visit V1 (before therapy), Group C: 1 tablet 100 mg × 2 days

## CO[C@H]1/C=C/O[C@@]2(C)Oc3c(C)c(O)c4c(O)c(c5c(nc6cc(C)ccn65)c4c3C2=O)NC(=O)/C(C)=C\C=C\[C@H](C)[C@H](O)[C@@H](C)[C@@H](O)[C@@H](C)[C@H](OC(C)=O)[C@@H]1C [Rifaximin]
[1]; [6]
  Patients with decrease Nugent score ≥8 points: 14.29%
  Patients with decreased Nugent score ≤0 points (not responding): 9.52%
  Patients with decreased Nugent score ≥3 points: 52.4%
  Patients with decreased Nugent score ≥5 points: 28.6%
  Recovered patients, both criteria (Amsel and Nugent): 25.9%
  Recovered patients, clinical evaluation criteria (Amsel): 66.7%
  Recovered patients, microbiological evaluation criteria (Nugent): 25.9%
[1]; [7]
  Patients with decreased Nugent score ≥3 points: higher than 50%
  Patients with decreased Nugent score ≥5 points: about 28%
  Recovered patients, microbiological evaluation criteria (Nugent): about 25%
[1]; [8]
  Patients with decrease Nugent score ≥8 points: 17.39%
  Patients with decreased Nugent score ≤0 points (not responding): 17.39%
  Patients with decreased Nugent score ≥3 points: 65.2%
  Patients with decreased Nugent score ≥5 points: 47.8%
  Recovered patients, both criteria (Amsel and Nugent): 48.0%
  Recovered patients, clinical evaluation criteria (Amsel): 80.0%
  Recovered patients, microbiological evaluation criteria (Nugent): 48.0%
[1]; [9]
  Patients with decreased Nugent score ≥3 points: higher than 65%
  Patients with decreased Nugent score ≥5 points: about 48%
  Recovered patients, microbiological evaluation criteria (Nugent): 47%
[1]; [10]
  Patients with decrease Nugent score ≥8 points: 15.79%
  Patients with decreased Nugent score ≤0 points (not responding): 36.84%
  Patients with decreased Nugent score ≥3 points: 36.9%
  Patients with decreased Nugent score ≥5 points: 26.3%
  Recovered patients, both criteria (Amsel and Nugent): 36.0%
  Recovered patients, clinical evaluation criteria (Amsel): 72.0%
  Recovered patients, microbiological evaluation criteria (Nugent): 36.0%
[1]; [11]
  Patients with decreased Nugent score ≥3 points: higher than 30%
  Patients with decreased Nugent score ≥5 points: about 26%
  Recovered patients, microbiological evaluation criteria (Nugent): about 36%
[1]; visit V4, Group A: 1 tablet 100 mg × 5 days
  Recovered patients, both criteria (Amsel and Nugent): 14.8%
[1]; visit V4, Group B: 1 tablet 25 mg × 5 days
  Recovered patients, both criteria (Amsel and Nugent): 28.0%
[1]; visit V4, Group C: 1 tablet 100 mg × 2 days
  Recovered patients, both criteria (Amsel and Nugent): 4.0%
[1]; [12]
  Recovery of patients after relapse of bacterial vaginosis: 38.5%
  Recovery of patients suffering from a first episode of bacterial vaginosis: 14.3%
[1]; [13]
  Recovery of patients after relapse of bacterial vaginosis: 53.8%
  Recovery of patients suffering from a first episode of bacterial vaginosis: 41.7%
[1]; [14]
  Recovery of patients after relapse of bacterial vaginosis: 46.2%
  Recovery of patients suffering from a first episode of bacterial vaginosis: 25.0%
[2]; [15]
  change of Gardnerella vaginalis concentration by real-time PCR: reduction
[2]; [16]
  Target DNA/genomic vaginal DNA, Gardnerella vaginalis: 34.92 ng/µg
[2]; [17]
  Target DNA/genomic vaginal DNA, Gardnerella vaginalis: 119.4 ng/µg
[2]; [18]
  Target DNA/genomic vaginal DNA, Gardnerella vaginalis: 66.74 ng/µg
[2]; [6]
  Target DNA/genomic vaginal DNA, Gardnerella vaginalis: 23.56 ng/µg
[2]; [8]
  Target DNA/genomic vaginal DNA, Gardnerella vaginalis: 66.26 ng/µg
[2]; [10]
  Target DNA/genomic vaginal DNA, Gardnerella vaginalis: 29.44 ng/µg
[2]; [12]
  Target DNA/genomic or vaginal DNA, Gardnerella vaginalis: 3.067 ng/µg
[2]; [13]
  Target DNA/genomic or vaginal DNA, Gardnerella vaginalis: 17.57 ng/µg
[2]; [14]
  Target DNA/genomic or vaginal DNA, Gardnerella vaginalis: 75.09 ng/µg
[3]; all groups treated with rifaximin
  change of Lactobacilli by real-time PCR: Lactobacilli increase
[3]; [16]
  Target DNA/genomic vaginal DNA, Lactobacillus: 16.83 ng/µg
[3]; [17]
  Target DNA/genomic vaginal DNA, Lactobacillus: 10.06 ng/µg
[3]; [18]
  Target DNA/genomic vaginal DNA, Lactobacillus: 12.66 ng/µg
[3]; [6]
  Target DNA/genomic vaginal DNA, Lactobacillus: 20.09 ng/µg
[3]; [8]
  Target DNA/genomic vaginal DNA, Lactobacillus: 33.78 ng/µg
[3]; [10]
  Target DNA/genomic vaginal DNA, Lactobacillus: 25.36 ng/µg
[3]; [12]
  Target DNA/genomic or vaginal DNA, Lactobacillus: 21.3 ng/µg
[3]; [13]
  Target DNA/genomic or vaginal DNA, Lactobacillus: 39.57 ng/µg
[3]; [14]
  Target DNA/genomic or vaginal DNA, Lactobacillus: 8.959 ng/µg
[3]; group A: tablet 100 mg rifaximin for five days
  increase of Lactobacilli concentration: twentyfold
[3]; group B: tablet 25 mg rifaximin for five days
  increase of Lactobacilli concentration: fortyfold
[3]; group C: tablet 100 mg rifaximin for two days
  increase of Lactobacilli concentration: eightfold
[4]; [15]
  change of Prevotella concentration by real-time PCR: reduction
[4]; [16]
  Target DNA/genomic vaginal DNA, Prevotella: 18.8 ng/µg
[4]; [17]
  Target DNA/genomic vaginal DNA, Prevotella: 18.47 ng/µg
[4]; [18]
  Target DNA/genomic vaginal DNA, Prevotella: 17.91 ng/µg
[4]; [6]
  Target DNA/genomic vaginal DNA, Prevotella: 12.2 ng/µg
[4]; [8]
  Target DNA/genomic vaginal DNA, Prevotella: 3.712 ng/µg
[4]; [10]
  Target DNA/genomic vaginal DNA, Prevotella: 7.248 ng/µg
[4]; [12]
  Target DNA/genomic or vaginal DNA, Prevotella: 0.04296 ng/µg
[4]; [13]
  Target DNA/genomic or vaginal DNA, Prevotella: 2.345 ng/µg
[4]; [14]
  Target DNA/genomic or vaginal DNA, Prevotella: 54 ng/µg
[5]; [16]
  Target DNA/genomic vaginal DNA, Veillonella: 0.04128 ng/µg
[5]; [17]
  Target DNA/genomic vaginal DNA, Veillonella: 0.03492 ng/µg
[5]; [18]
  Target DNA/genomic vaginal DNA, Veillonella: 0.2214 ng/µg
[5]; [6]
  Target DNA/genomic vaginal DNA, Veillonella: 0.007807 ng/µg
[5]; [8]
  Target DNA/genomic vaginal DNA, Veillonella: 0.01761 ng/µg
[5]; [10]
  Target DNA/genomic vaginal DNA, Veillonella: 0.005642 ng/µg
[5]; [12]
  Target DNA/genomic or vaginal DNA, Veillonella: 0 ng/µg
[5]; [13]
  Target DNA/genomic or vaginal DNA, Veillonella: 0 ng/µg
[5]; [14]
  Target DNA/genomic or vaginal DNA, Veillonella: 0.2748 ng/µg
